The record followed here is article PMC12814185, “Receptor-Mediated Shuttling of a D‑Amino Acid Peptide Achieves High Nanomolar Cytosolic Concentrations” (Journal of the American Chemical Society, 2025).

Bridges are numbered along the chain shown (N, C = ends). Roman numbers before positions name the chains, in order. Triazole bridges read from a SMILES are 1,4-linked. Where no end group is shown, it is not given here. Side-chain parts run from the residue outwards. [ ]: non-standard residue; d: D form. The star is where a group is joined. X1 = CN1C(=CC=CC=CC2=[N+](CCCCCC(=O)*)c3ccc(S(=O)(=O)[O-])cc3C2(C)C)C(C)(C)c2cc(S(=O)(=O)O)ccc21; Lys(N3) = [N-]=[N+]=NCCCC[C@H](N)C(=O)O; Cit = NC(=O)NCCC[C@H](N)C(=O)O; d(hCys) = N[C@H](CCS)C(=O)O; PEG3 = NCCOCCOCCOCCC(=O)O; Pra = C#CC[C@H](N)C(=O)O

This series has as its system HEK293_CMKLR1-eYFP, HMEC-1, MDA-MB-231 and THP-1 cells. In words: Quantification of total cellular peptide uptake in cell lysate. Format: cell-based. As to conditions: 1 µM peptide, 72 h, fluorescence in lysate, all cell lines; performed thrice. How it is done: page 7: Quantification of total cellular peptide uptake of different cell lines MDA-MB-231 cells and stably transfected HEK293_CMKLR1-eYFP cells were seeded at 165,000 cells per well and HMEC-1 cells at 55,000 cells per well into poly-ᴅ-lysine coated 12-well plates in their respective cell culture medium. […] the cells and incubated for 72 h. Cells were then washed with PBS and detached with trypsin/EDTA. […] Suspended cells were washed thrice with Fluorobrite DMEMTM and collected by centrifugation at 500 g for 5 min after each step. Finally, cells were resuspended in […] Fluorobrite DMEMTM and cell density was determined with an automated cell counter (Cell Drop, DeNovix). Cell suspensions were then lysed by ultrasonic homogenization (U[…], Hielscher) for 2 × 10 s on ice to prevent self-quenching of Cy5 due to high local concentrations in vesicles. […] Quantification of receptor-mediated uptake in CMKLR1-expressing cell lines. (A) Cell-surface enzyme-linked immunosorbent assay (ELISA) for the quantification of CMKLR1 expression of different cell lines. […] For quantification, cells were detached, counted, lysed by ultrasonic homogenization, and fluorescence was measured in the lysate. Total peptide uptake per cell was calculated from a dilution series of Cy5-labeled peptide with known concentration. […]

Regarding “I: GSVSHHHHHHGGHHHH[PEG3][dK]([PEG3-X1])[dD][dW][dW][dP][dL][dA][dF][dE][dA][dL][dL][dR]GEV[Cit][PEG3][Pra]-NH2 / II: Ac-[Lys(N3)]YFP[d(hCys)]QFAFC-OH (triazole I:36-II:1; disulfide II:5-II:10) [3Cy]”, the “total peptide uptake per cell” value is given as “uptake slightly higher than that of 2Cy”.
